The record followed here is patent US20170334899A1, “AMINO-SUBSTITUTED ISOTHIAZOLES” (Bayer Pharma Aktiengesellschaft, priority 2014, published 2017).

In this assay the target is T1, catalytic domain of human Bub1 (amino acids 704-1085) (Homo sapiens, UniProt O43683).
T1 construct: catalytic domain of human Bub1 (amino acids 704-1085); His6 (N); made in house; host or cells: insect cells (Hi5)
As to the kind of experiment: Bub1 kinase assay (TR-FRET). Format: biochemical. Conditions: 10 μM ATP, avg, read-out: Bub1 avg (IC50 [mol/l]). The procedure, abridged: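 Readout is the 665/620 nm TR-FRET ratio from anti-phosphoserine antibody, Eu-labelled anti-mouse IgG and streptavidin-XL665, scaled between no-enzyme and uninhibited controls. Reaction: 1 μM biotinylated peptide, 10 μM ATP, 60 min, 22 °C, after 15 min compound preincubation with His6-Bub1 (704-1085, insect-expressed, ~200 ng/ml).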
In general terms: In TR-FRET formats the signal depends on donor and acceptor labels being close together.

T1 sequence (O43683 704-1085): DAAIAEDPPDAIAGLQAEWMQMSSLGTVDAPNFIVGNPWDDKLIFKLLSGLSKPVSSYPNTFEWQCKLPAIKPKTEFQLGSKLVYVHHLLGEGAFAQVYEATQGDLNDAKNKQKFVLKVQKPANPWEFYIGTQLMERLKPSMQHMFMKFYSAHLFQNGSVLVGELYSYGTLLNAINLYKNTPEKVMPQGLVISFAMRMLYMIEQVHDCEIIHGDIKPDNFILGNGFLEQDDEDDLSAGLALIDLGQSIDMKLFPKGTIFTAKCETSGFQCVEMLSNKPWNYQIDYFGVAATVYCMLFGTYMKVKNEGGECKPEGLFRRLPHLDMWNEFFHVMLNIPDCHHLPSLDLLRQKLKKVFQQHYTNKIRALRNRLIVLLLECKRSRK

As to `Cc1nsc(Nc2cnc(C(F)(F)F)cn2)c1C(=O)Nc1ccc(F)c(O[C@@H]2CCN(CC(F)(F)F)C2)c1` [Example 413, N-(4-Fluoro-3-{[(3R)-1-(2,2,2-trifluoroethyl)pyrrolidin-3-yl]oxy}phenyl)-3-methyl-5-{[5-(trifluoromethyl)pyrazin-2-yl]amino}-1,2-thiazole-4-carboxamide], the IC50 was over 20 µM.
As to `Cc1nsc(Nc2cc(C#N)ccn2)c1C(=O)Nc1ccc(OCCCN)nc1` [Example 44, N-[6-(3-Aminopropoxy)pyridin-3-yl]-5-[(4-cyanopyridin-2-yl)amino]-3-methyl-1,2-thiazole-4-carboxamide], the IC50 was at least 20 µM.
Next, `Cc1nsc(Nc2cnccn2)c1C(=O)Nc1ccc(OC2CCCN(C(=O)OC(C)(C)C)C2)nc1` (centres unmarked) [Example 41, tert-Butyl 3-{[5-({[3-methyl-5-(pyrazin-2-ylamino)-1,2-thiazol-4-yl]carbonyl}amino)-pyridin-2-yl]oxy}piperidine-1-carboxylate]: at least 20 µM.
With `Cc1nsc(Nc2ccc(C#N)cn2)c1C(=O)Nc1ccc(OC2CCCN(CCF)C2)nc1` (centres unmarked) [Example 38, 5-[(5-Cyanopyridin-2-yl)amino]-N-(6-{[1-(2-fluoroethyl)piperidin-3-yl]oxy}pyridin-3-yl)-3-methyl-1,2-thiazole-4-carboxamide], the IC50 was at least 20 µM.
Consider `Cc1nsc(Nc2ccc(C#N)cn2)c1C(=O)Nc1ccc(OCCCNC(=O)OC(C)(C)C)nc1` [Example 46, tert-Butyl [3-({5-[({5-[(5-cyanopyridin-2-yl)amino]-3-methyl-1,2-thiazol-4-yl}-carbonyl)amino]pyridin-2-yl}oxy)propyl]carbamate], for which the IC50 is at least 20 µM.
As to `Cc1nsc(Nc2cnccn2)c1C(=O)Nc1ccc(OCCCN)nc1` [Example 48, N-[6-(3-Aminopropoxy)pyridin-3-yl]-3-methyl-5-(pyrazin-2-ylamino)-1,2-thiazole-4-carboxamide], the IC50 is at least 20 µM.
Regarding `Cc1nsc(Nc2ccc(C#N)cn2)c1C(=O)Nc1ccc(OC2CCCNC2)nc1` (centres unmarked) [Example 37, 5-[(5-Cyanopyridin-2-yl)amino]-3-methyl-N-[6-(piperidin-3-yloxy)pyridin-3-yl]-1,2-thiazole-4-carboxamide], the IC50 was at least 20 µM.
Consider `Cc1nsc(Nc2ccc(C#N)cn2)c1C(=O)Nc1ccc(Nc2ccc(F)c(F)c2)nc1` [Example 433, 5-[(5-Cyanopyridin-2-yl)amino]-N-{6-[(3,4-difluorophenyl)amino]pyridin-3-yl}-3-methyl-1,2-thiazole-4-carboxamide], for which the IC50 is over 20 µM.
Regarding `Cc1nsc(Nc2cnc3ccccc3n2)c1C(=O)Nc1ccc(NCCN(C)C(=O)OC(C)(C)C)nc1` [Example 434, tert-Butyl methyl(2-{[5-({[3-methyl-5-(quinoxalin-2-ylamino)-1,2-thiazol-4-yl]carbonyl}amino)pyridin-2-yl]amino}ethyl)carbamate], the IC50 is over 20 µM.
Turning to `CCN1CCC(Oc2ccc(NC(=O)c3c(C)nsc3Nc3cnc(C(F)(F)F)cn3)cn2)C(F)(F)C1` (centres unmarked) [Example 406, N-{6-[(1-Ethyl-3,3-difluoropiperidin-4-yl)oxy]pyridin-3-yl}-3-methyl-5-{[5-(trifluoromethyl)pyrazin-2-yl]amino}-1,2-thiazole-4-carboxamide], the IC50 was over 20 µM.
Take `COC(=O)c1cccc(NC(=O)c2c(C)nsc2Nc2cnc3ccccc3n2)c1` [Example 50, Methyl 3-({[3-methyl-5-(quinoxalin-2-ylamino)-1,2-thiazol-4-yl]carbonyl}amino)-benzoate]: the IC50 was at least 20 µM.
Next, `Cc1nsc(Nc2cnc(C(F)(F)F)cn2)c1C(=O)Nc1ccc(F)c(OC[C@H]2CCCN(CC(F)(F)F)C2)c1` [Example 419, N-(4-Fluoro-3-{[(3S)-1-(2,2,2-trifluoroethyl)piperidin-3-yl]methoxy}phenyl)-3-methyl-5-{[5-(trifluoromethyl)pyrazin-2-yl]amino}-1,2-thiazole-4-carboxamide]: over 20 µM.
To `Cc1nsc(Nc2cnc(C(F)(F)F)cn2)c1C(=O)Nc1ccc(F)c(O[C@@H]2CCN(CCC(F)(F)F)C2)c1` [Example 414, N-(4-Fluoro-3-{[(3R)-1-(3,3,3-trifluoropropyl)pyrrolidin-3-yl]oxy}phenyl)-3-methyl-5-{[5-(trifluoromethyl)pyrazin-2-yl]amino}-1,2-thiazole-4-carboxamide] belongs over 20 µM.
Next, `Cc1nsc(Nc2cnc(C(F)(F)F)cn2)c1C(=O)Nc1ccc(F)c(OC[C@H]2CCCN(CCC(F)(F)F)C2)c1` [Example 418, N-(4-Fluoro-3-{[(3S)-1-(3,3,3-trifluoropropyl)piperidin-3-yl]methoxy}phenyl)-3-methyl-5-{[5-(trifluoromethyl)pyrazin-2-yl]amino}-1,2-thiazole-4-carboxamide]: over 20 µM.
With `COCCOc1ccc(NC(=O)c2c(C)nsc2Nc2nc3c(C(F)(F)F)cccc3s2)cn1` [Example 3, N-[6-(2-Methoxyethoxy)pyridin-3-yl]-3-methyl-5-{[4-(trifluoromethyl)-1,3-benzo-thiazol-2-yl]amino}-1,2-thiazole-4-carboxamide], the IC50 is at least 20 µM.
Consider `Cc1nsc(Nc2cc(C#N)ccn2)c1C(=O)Nc1ccc(OC2CCCNC2)nc1` (centres unmarked) [Example 35, 5-[(4-Cyanopyridin-2-yl)amino]-3-methyl-N-[6-(piperidin-3-yloxy)pyridin-3-yl]-1,2-thiazole-4-carboxamide], for which the IC50 is at least 20 µM.
For `Cc1nsc(Nc2cnc(C(F)(F)F)cn2)c1C(=O)Nc1ccc(F)c(OCCCNC(=O)C(F)(F)F)c1` [Example 427, N-(4-Fluoro-3-{3-[(trifluoroacetyl)amino]propoxy}phenyl)-3-methyl-5-{[5-(trifluoro-methyl)pyrazin-2-yl]amino}-1,2-thiazole-4-carboxamide], the IC50 is at least 20 µM.
As for `Cc1nsc(Nc2cnc3ccccc3n2)c1C(=O)Nc1cccc(C(=O)N[C@H](C(=O)OC(C)(C)C)[C@@H](C)OC(C)(C)C)c1` [Example 57, tert-Butyl O-tert-butyl-N-[3-({[3-methyl-5-(quinoxalin-2-ylamino)-1,2-thiazol-4 yl]carbonyl}amino)-benzoyl]threoninate], the IC50 is at least 20 µM.
For the compound `Cc1nsc(Nc2cnc(C(F)(F)F)cn2)c1C(=O)Nc1ccc(O[C@@H]2CN(CC(F)(F)F)C[C@@H]2F)nc1` [Example 410, N-(6-{[(3R,4S)-4-Fluoro-1-(2,2,2-trifluoroethyl)pyrrolidin-3-yl]oxy}pyridin-3-yl)-3-methyl-5-{[5-(trifluoromethyl)pyrazin-2-yl]amino}-1,2-thiazole-4-carboxamide], the IC50 was over 20 µM.
For `Cc1nsc(Nc2cnc3ccccc3n2)c1C(=O)Nc1cccc(C(=O)OC(C)(C)C)c1` [Example 49, tert-Butyl 3-({[3-methyl-5-(quinoxalin-2-ylamino)-1,2-thiazol-4-yl]carbonyl}amino)-benzoate], the IC50 was at least 20 µM.
For the compound `Cc1nsc(Nc2cnc(C(F)(F)F)cn2)c1C(=O)Nc1ccc(CCC2CCN(CCC(F)(F)F)CC2)nc1` [Example 420, 3-Methyl-5-{[5-(trifluoromethyl)pyrazin-2-yl]amino}-N-(6-{2-[1-(3,3,3-trifluoro-propyl)piperidin-4-yl]ethyl}pyridin-3-yl)-1,2-thiazole-4-carboxamide], the IC50 is at least 20 µM.
On to `Cc1nsc(Nc2ccc(C#N)cn2)c1C(=O)Nc1ccc(OC2CCCN(CC(F)F)C2)nc1` (centres unmarked) [Example 39, 5-[(5-Cyanopyridin-2-yl)amino]-N-(6-{[1-(2,2-difluoroethyl)piperidin-3-yl]oxy}-pyridin-3-yl)-3-methyl-1,2-thiazole-4-carboxamide], for which the IC50 was at least 20 µM.
`Cc1nsc(Nc2cnc3ccccc3n2)c1C(=O)Nc1cccc(C(=O)N[C@@H](CCC(N)=O)C(=O)OC(C)(C)C)c1` [Example 56, tert-butyl N^2-[3-({[3-methyl-5-(quinoxalin-2-ylamino)-1,2-thiazol-4-yl]carbonyl}amino)-benzoyl]glutaminate]: the IC50 is at least 20 µM.
Consider `Cc1nsc(Nc2cnc3ccccc3n2)c1C(=O)Nc1cccc(C(=O)NC(C)(C)C)c1` [Example 53, N-[3-(tert-Butylcarbamoyl)-phenyl]-3-methyl-5-(quinoxalin-2-ylamino)-1,2-thiazole-4-carboxamide], for which the IC50 was 9 µM.
Turning to `Cc1nsc(Nc2ccc(C#N)cn2)c1C(=O)Nc1ccc(OC2CCCN(C(=O)OC(C)(C)C)C2)nc1` (centres unmarked) [Example 36, tert-Butyl 3-({5-[({5-[(5-cyanopyridin-2-yl)amino]-3-methyl-1,2-thiazol-4-yl}-carbonyl)amino]pyridin-2-yl}oxy)piperidine-1-carboxylate], the IC50 was at least 20 µM.
As for `CC(=O)Nc1ccc(NC(=O)c2c(C)nsc2Nc2ccc(C#N)cn2)cn1` [Example 435, N-(6-Acetamidopyridin-3-yl)-5-[(5-cyanopyridin-2-yl)amino]-3-methyl-1,2-thiazole-4-carboxamide], the IC50 is over 20 µM.
As for `CCCN1C[C@H](F)[C@H](Oc2ccc(NC(=O)c3c(C)nsc3Nc3cnc(C(F)(F)F)cn3)cn2)C1` [Example 408, N-(6-{[(3R,4S)-4-Fluoro-1-propylpyrrolidin-3-yl]oxy}pyridin-3-yl)-3-methyl-5-{[5-(trifluoromethyl)pyrazin-2-yl]amino}-1,2-thiazole-4-carboxamide], the IC50 is over 20 µM.
Turning to `Cc1nsc(Nc2cnc3ccccc3n2)c1C(=O)Nc1ccc(OCCCNC(=O)OC(C)(C)C)nc1` [Example 42, tert-Butyl (3-{[5-({[3-methyl-5-(quinoxalin-2-ylamino)-1,2-thiazol-4-yl]carbonyl}-amino)pyridin-2-yl]oxy}propyl)carbamate], the IC50 is at least 20 µM.
Next, `Cc1nsc(Nc2cnc(C(F)(F)F)cn2)c1C(=O)Nc1ccc(F)c(OCC2CCN(CC(F)(F)F)C2)c1` (centres unmarked) [Example 318, N-(4-fluoro-3-{[1-(2,2,2-trifluoroethyl)pyrrolidin-3-yl]methoxy}phenyl)-3-methyl-5-{[5-(trifluoromethyl)pyrazin-2-yl]amino}-1,2-thiazole-4-carboxamide]: over 20 µM.
